In US20250381254A1, “Augmented Acid Alpha-Glucosidase For The Treatment Of Pompe Disease” (Amicus Therapeutics, Inc., priority 2015, published 2025):
Read-outs that look alike come from different tables or passages of the source.

Key:
[1] = Population PK model of miglustat, oral dosing in Gaa knockout mice; format: in vivo, mouse; settings: typical value
Experimental: A population PK model of miglustat is constructed based on oral dosing in Gaa knockout (KO) mice. The model has a residual additive error of 0.475 ng/m L.

[2] = molecular target: acid α-glucosidase (Homo sapiens, UniProt P10253); experiment: Inhibition of acid α-glucosidase activity; format: biochemical
Experimental: Pharmacokinetic models (Example 8) were used to predict the length of time that the plasma or tissue concentrations of duvoglustat (a surrogate of miglustat) would remain above the IC50 (the concentration giving 50% of maximum inhibition of acid α-glucosidase activity) of miglustat in plasma and lysosome. Inhibition of acid α-glucosidase activity is determined by methods described previously (Flanagan J J, Rossi B, Tang K, Wu X, Mascioli K, et al. (2009) “The pharmacological chaperone 1-deoxynojirimycin increases the activity and lysosomal trafficking of multiple mutant forms of acid alpha-glucosidase.” Hum Mutat 30: 1683-1692).

[3] = molecular target: ATB200 (Homo sapiens, UniProt P10253, H199R/R223H/V780I); experiment: Unfolding of ATB200 protein vs. temperature with and without miglustat (FIG. 1); format: physicochemical; settings: various pH
Text: Without being bound by theory, it is believed that miglustat acts as a pharmacological chaperone for the recombinant human acid α-glucosidase ATB200 and binds to its active site. […] However, the binding of miglustat to the active site of ATB200 also can result in inhibition of the enzymatic activity of ATB200 by preventing the natural substrate, glycogen, from accessing the active site.

[4] = Previous studies in non-human primates (exposure); settings: in vivo, po, 175 mg/kg
[5] = Clinical study: plasma miglustat PK; format: in vivo, human; settings: for AUC0-∞/BW (geometric mean) / CL/F (arithmetic mean) / Cmax/BW (geometric mean) / βt1/2 (arithmetic mean) / AUC(0-t) / AUC(0-inf) / Cmax / Vd/F / Tmax: with 20 mg/kg ATB200; for AUC(0-t) / AUC(0-inf) / Cmax / Vd/F / Tmax: human, plasma, 20 mg/kg; for AUC(0-t): read-out: AUC0-t (geometric mean); for AUC(0-inf): read-out: AUC0-∞ (geometric mean); for Cmax: read-out: Cmax (geometric mean); for Vd/F: read-out: Vz/F (arithmetic mean); for Tmax: read-out: tmax (median)
Text: The study will be conducted in 2 stages.
• Safety: review of AEs, including SAEs and IARs; review of concomitant medications and nondrug therapies; vital signs (HR, RR, BP, and temperature); weight; PE; ECG; clinical safety laboratory assessments (serum chemistry, hematology, and urinalysis); and urine pregnancy test • PD: urinary Hex4 and serum CPK • Immunological: blood samples for anti-recombinant acid α-glucosidase antibody titers (anti-recombinant acid α-glucosidase total and neutralizing antibody titers, and antibody cross-reactivity with alglucosidase alfa) and blood samples for measurement of pro-inflammatory cytokines and other biomarkers of immune system activation. If needed, IgE measurements will also be performed. • Serial 24-hour PK: During Period 4 (Visit 6, Day 43 and Visit 8, Day 71) and Period 5 (Visit 9, Day 85 and Visit 11, Day 113), blood sampling for plasma acid α-glucosidase activity levels, total acid α-glucosidase protein concentrations, and miglustat concentrations will be taken for all subjects.
In Tables 12-15 and FIGS. 24-26, the single dose (SD) measurements were taken after a single administration of miglustat and ATB200, and the multiple dose (MD) measurements were taken after the third biweekly administration of miglustat and ATB200.

[6] = Model-derived miglustat/ATB200 steady state exposure (AUC) ratio; set-up: species or system mouse; settings: 10 mg/kg miglustat co-administered with 20 mg/kg ATB200
Text: Pharmacokinetic models (Example 8) are used to predict exposure to acid α-glucosidase and miglustat, time-matched to the values for tissue lysosomal glycogen levels in Table 5.

[7] = Miglustat toxicokinetics; format: in vivo, cynomolgus monkey; settings: for AUC(0-t) / Cmax / half-life / Tmax / Vd/F: cynomolgus monkey, plasma; for Vd/F: read-out: Vz/F
Experimental: Analysis of miglustat concentration was carried out using a LC-MS/MS method analogous to that described for analysis of duvoglustat concentration by Richie Khanna, Allan C. Powe Jr., Yi Lun, Rebecca Soska, Jessie Feng, Rohini Dhulipala, Michelle Frascella, Anadina Garcia, Lee J. Pellegrino, Su Xu, Nastry Brignol, Matthew J. Toth, Hung V. Do, David J. Lockhart, Brandon A. Wustman, Kenneth J. Valenzano. […] Miglustat TK parameters were estimated by the log-linear trapezoidal rule.

[8] = 130 mg miglustat, multiple dose
[9] = oral, 130 mg miglustat, multiple dose
[10] = oral, 130 mg miglustat, single dose
[11] = oral, 260 mg miglustat, single dose
[12] = Cambodian origin, po, 175 mg/kg, Day 85, 100 mg/kg ATB200 + 175 mg/kg miglustat
[13] = Cambodian origin, po, 175 mg/kg, Day 85, 175 mg/kg miglustat monotherapy
[14] = po, 25 mg/kg, Day 1, 50 mg/kg ATB200 + 25 mg/kg miglustat
[15] = po, 25 mg/kg, Day 85, 50 mg/kg ATB200 + 25 mg/kg miglustat
[16] = po, 175 mg/kg, Day 1, 100 mg/kg ATB200 + 175 mg/kg miglustat
[17] = po, 175 mg/kg, Day 1, 175 mg/kg miglustat monotherapy
[18] = po, 175 mg/kg, Day 85, 100 mg/kg ATB200 + 175 mg/kg miglustat
[19] = po, 175 mg/kg, Day 85, 175 mg/kg miglustat monotherapy

CCCCN1C[C@H](O)[C@@H](O)[C@H](O)[C@H]1CO [miglustat, (2R,3R,4R,5S)-1-butyl-2-(hydroxymethyl)piperidine-3,4,5-triol]
Central volume of distribution (Vc) [1]: 4.55 mL | Peripheral clearance (CLd) [1]: 4.57 mL/h | Peripheral volume of distribution (V2) [1]: 19.6 mL | Rate constant of absorption (Ka) [1]: 2.09 h⁻¹ | Systemic clearance (CL) [1]: 43.3 mL/h | IC50, inhibition of acid α-glucosidase activity ([2]; pH of plasma (pH 7.0)): 0.17 µg/mL | IC50 ([2]; pH of the lysosomal compartment (pH 5.2)): 1720 nM | percentage of unfolded ATB200 protein [3]: decrease the percentage of unfolded ATB200 protein | AUC [4]: 196000 ng·h/mL | dose proportionality of kinetics ([5]; 130 mg and 260 mg): dose-proportional kinetics | AUC0-∞/BW (geometric mean) [5, 8]: 142 ng·h/mL/kg | CL/F (arithmetic mean) [5, 8]: 10.8 L/h | Cmax/BW (geometric mean) [5, 8]: 16.3 ng/mL/kg | βt1/2 (arithmetic mean) [5, 8]: 5.6 h | AUC0-∞/BW (geometric mean) ([5]; 130 mg miglustat, single dose): 154 ng·h/mL/kg | CL/F (arithmetic mean) ([5]; 130 mg miglustat, single dose): 9.93 L/h | Cmax/BW (geometric mean) ([5]; 130 mg miglustat, single dose): 19.2 ng/mL/kg | βt1/2 (arithmetic mean) ([5]; 130 mg miglustat, single dose): 4.5 h | AUC0-∞/BW (geometric mean) ([5]; 260 mg miglustat, single dose): 325 ng·h/mL/kg | CL/F (arithmetic mean) ([5]; 260 mg miglustat, single dose): 9.51 L/h | Cmax/BW (geometric mean) ([5]; 260 mg miglustat, single dose): 41.5 ng/mL/kg | βt1/2 (arithmetic mean) ([5]; 260 mg miglustat, single dose): 5.5 h | AUC(0-t) [5, 9]: 11500 ng·h/mL | AUC(0-inf) [5, 9]: 12200 ng·h/mL | Cmax [5, 9]: 1390 ng/mL | Vd/F [5, 9]: 88.1 L | Tmax [5, 9]: 3 h | AUC(0-t) [5, 10]: 12600 ng·h/mL | AUC(0-inf) [5, 10]: 13200 ng·h/mL | Cmax [5, 10]: 1650 ng/mL | Vd/F [5, 10]: 65.4 L | Tmax [5, 10]: 2.75 h | AUC(0-t) [5, 11]: 26600 ng·h/mL | AUC(0-inf) [5, 11]: 28000 ng·h/mL | Cmax [5, 11]: 3550 ng/mL | Vd/F [5, 11]: 79.2 L | Tmax [5, 11]: 2.75 h | time of peak plasma concentrations into the ATB200 infusion ([5]; oral, 1 hour prior to ATB200 infusion): 2 h | miglustat/ATB200 AUC ratio [6]: 0.01159 | AUC(0-t) [7, 12]: 216000 ng·h/mL | Cmax [7, 12]: 22000 ng/mL | AUC(0-t) [7, 13]: 204000 ng·h/mL | Cmax [7, 13]: 14700 ng/mL | CLT/F ([7]; Day 1, 50 mg/kg ATB200 + 25 mg/kg miglustat): 1.92 L/h | CLT/F ([7]; Day 1, 100 mg/kg ATB200 + 175 mg/kg miglustat): 3.22 L/h | CLT/F ([7]; Day 1, 175 mg/kg miglustat monotherapy): 3.67 L/h | CLT/F ([7]; Day 85, 50 mg/kg ATB200 + 25 mg/kg miglustat): 1.99 L/h | CLT/F ([7]; Day 85, 100 mg/kg ATB200 + 175 mg/kg miglustat): 3.62 L/h | CLT/F ([7]; Day 85, 175 mg/kg miglustat monotherapy): 3.49 L/h | half-life ([7]; both sexes, oral, males and females combined, Days 1 and 85, across groups, read-out: mean t1/2): 6.66 to 8.23 h | Tmax ([7]; oral, postdose, across groups and days): 2 to 4 h | AUC(0-t) [7, 14]: 47300 ng·h/mL | Cmax [7, 14]: 7430 ng/mL | Tmax [7, 14]: 2.06 h | Vd/F [7, 14]: 20.5 L | half-life ([7]; po, 25 mg/kg, Day 1, 50 mg/kg ATB200 + 25 mg/kg miglustat, read-out: t1/2 (converted)): 7.44 h | AUC(0-t) [7, 15]: 49100 ng·h/mL | Cmax [7, 15]: 7510 ng/mL | Tmax [7, 15]: 2.88 h | Vd/F [7, 15]: 23.3 L | half-life ([7]; po, 25 mg/kg, Day 85, 50 mg/kg ATB200 + 25 mg/kg miglustat, read-out: t1/2 (converted)): 8.23 h | AUC(0-t) [7, 16]: 182000 ng·h/mL | Cmax [7, 16]: 20400 ng/mL | Tmax [7, 16]: 2.69 h | Vd/F [7, 16]: 32.3 L | half-life ([7]; po, 175 mg/kg, Day 1, 100 mg/kg ATB200 + 175 mg/kg miglustat, read-out: t1/2 (converted)): 6.85 h | AUC(0-t) [7, 17]: 173000 ng·h/mL | Cmax [7, 17]: 16400 ng/mL | Vd/F [7, 17]: 35.9 L | half-life ([7]; po, 175 mg/kg, Day 1, 175 mg/kg miglustat monotherapy, read-out: t1/2 (converted)): 6.86 h | Tmax [7, 18]: 3.56 h | Vd/F [7, 18]: 39.1 L | half-life ([7]; po, 175 mg/kg, Day 85, 100 mg/kg ATB200 + 175 mg/kg miglustat, read-out: t1/2 (converted)): 7.86 h | Tmax [7, 19]: 4.13 h | Vd/F [7, 19]: 33.8 L | half-life ([7]; po, 175 mg/kg, Day 85, 175 mg/kg miglustat monotherapy, read-out: t1/2 (converted)): 6.66 h
